Key:
[1] = test system: interstitial cystitis (IC); test: Example 8: patient with interstitial cystitis symptoms; type: in vivo, human; settings: 1000 mg tablet orally twice daily for at least 2 months; present-tense example
Procedure: A person complains of suffering symptoms associated with interstitial cystitis (IC), including gastrointestinal symptoms of diarrhea, bloating and pain. In an effort to alleviate these symptoms, a tablet containing 1000 mg of compound (1) (Form A) is administered orally to this patient twice daily for at least 2 months. […] Similar positive results are observed for other patients complaining of the same or similar symptoms attributable to IC.

[2] = Solubility of polymorphs of compound 1; type: physicochemical; settings: compared to the other polymorphs
[3] = Bioavailability of polymorphs of compound 1; type: in vivo; settings: compared to the other polymorphs

solubility [2]: superior | bioavailability [3]: superior
Compound: CCCc1c(SCCCOc2ccc(C(C)=O)c(OCCCC(=O)O)c2CCC)ccc(C(C)=O)c1O [Form A, 4-[6-acetyl-3-[3-(4-acetyl-3-hydroxy-2-propylphenylthio)propoxy]-2-propylphenoxy]butyric acid]
symptoms of interstitial cystitis reported by patient [1]: positive effects

Source: US8026282B2, “Phenoxyalkylcarboxylic acid derivatives in the treatment of irritable bowel syndrome” (Medicinova, Inc., priority 2004, dated 2011)
